Experiments:
Experiment in all cases: combination Emax (second highest fraction inhibited in the dose matrix, 72 h); higher = more inhibition; extreme values may be limits of the assay
SK-N-AS (Neuroblastoma) = tested on: SK-N-AS (Neuroblastoma)
Procedure, shortened: (§1)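 Bliss excess equals the observed combination effect minus the expected value EA + EB − EA·EB, where EA and EB are the effects of each agent alone. Combination Emax is the second-highest inhibition within the matrix. Inhibition was scaled from CellTiter-Glo 2.0 luminescence, with 0 set by vehicle wells and 1 by blank wells, after 72 hours of two-drug dosing of cells plated in 1536-well plates.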

[1] = tested on: SKN (Other Solid Carcinomas)
Procedure, shortened: as §1

[2] = tested on: MOLT-4 (T-Lymphoblastic Leukemia)
Procedure, shortened: as §1

[3] = tested on: KMRC-1 (Kidney Carcinoma)
Procedure, shortened: as §1

COLO-679 (Melanoma) = tested on: COLO-679 (Melanoma)
Procedure, shortened: as §1

[4] = tested on: ME-180 (Cervical Carcinoma)
Procedure, shortened: as §1

[5] = tested on: Mo-T (Other Blood Carcinomas)
Procedure, shortened: as §1

[6] = tested on: MV-4-11 (Acute Myeloid Leukemia)
Procedure, shortened: as §1

[7] = tested on: NCI-H522 (Lung Adenocarcinoma)
Procedure, shortened: as §1

[8] = tested on: DU-145 (Prostate Carcinoma)
Procedure, shortened: as §1

[9] = tested on: EFO-21 (Ovarian Carcinoma)
Procedure, shortened: as §1

[10] = tested on: ML-2 (Acute Myeloid Leukemia)
Procedure, shortened: as §1

[11] = tested on: SW982 (Other Solid Carcinomas)
Procedure, shortened: as §1

[12] = tested on: MOG-G-UVW (Low Grade Glioma)
Procedure, shortened: as §1

[13] = tested on: KGN (Other Solid Carcinomas)
Procedure, shortened: as §1

Row | SMILES | combination Emax (SK-N-AS (Neuroblastoma)) | combination Emax [1] | combination Emax [2] | combination Emax [3] | combination Emax (COLO-679 (Melanoma)) | combination Emax [4] | combination Emax [5] | combination Emax [6] | combination Emax [7] | combination Emax [8] | combination Emax [9] | combination Emax [10] | combination Emax [11] | combination Emax [12] | combination Emax [13]
1 | C[C@@H]1COCCN1c1cc(C2([S@](C)(=N)=O)CC2)nc(-c2ccnc3[nH]ccc23)n1 [AZD6738] + Nc1ccn([C@@H]2O[C@H](CO)[C@@H](O)C2(F)F)c(=O)n1 [Gemcitabine] (first compound max 10 µM, 7x7, partner max 0.3 µM) | 0.801 | 0.71 | 1 | 0.801 | 0.82 | 0.913 | 0.812 | 1 | 0.912 | 0.583 | 0.625 | 1 | 0.949 | 0.967 | 0.969
2 | C[C@@H](Nc1cc(F)cc(F)c1)c1cc(C(=O)N(C)C)cc2c(=O)cc(N3CCOCC3)oc12 [AZD8186] + C1CN(CCC1(C(=O)N[C@@H](CCO)C2=CC=C(C=C2)Cl)N)C3=NC=NC4=C3C=CN4 [AZD5363] (first compound max 10 µM, 7x7, partner max 10 µM) | 0.135 | 0.557 | 0.437 | 0.618 | 0.273 | 0.579 | 0.347 | 0.731 | 0.0756 | 0.189 | 0.235 | 0.558 | 0.512 | 0.621 | 0.556
3 | C[C@@H](Nc1cc(F)cc(F)c1)c1cc(C(=O)N(C)C)cc2c(=O)cc(N3CCOCC3)oc12 [AZD8186] + CC(=O)c1c(C)c2cnc(Nc3ccc(N4CCNCC4)cn3)nc2n(C2CCCC2)c1=O [Palbociclib] (first compound max 10 µM, 7x7, partner max 10 µM) | 0.281 | 0.665 | 0.661 | 0.566 | 0.269 | 0.391 | 0.383 | 0.859 | 0.147 | 0.417 | 0.325 | 0.686 | 0.639 | 0.718 | 0.798
4 | C[C@@H](Oc1cc(-c2cnn(C3CCNCC3)c2)cnc1N)c1c(Cl)ccc(F)c1Cl [Crizotinib] + CC1=C(C(=CC=C1)Cl)NC(=O)C2=CN=C(S2)NC3=CC(=NC(=N3)C)N4CCN(CC4)CCO [Dasatinib] (first compound max 10 µM, 7x7, partner max 2 µM) | 0.491 | 0.866 | 0.826 | 0.815 | 0.297 | 0.644 | 0.383 | 0.985 | 0.339 | 0.462 | 0.701 | 0.969 | 1 | 0.928 | 0.978
5 | C[C@@H](Oc1cc(-c2cnn(C3CCNCC3)c2)cnc1N)c1c(Cl)ccc(F)c1Cl [Crizotinib] + Cn1cnc2c(F)c(Nc3ccc(Br)cc3Cl)c(C(=O)NOCCO)cc21 [Selumetinib] (first compound max 10 µM, 7x7, partner max 10 µM) | 0.585 | 0.368 | 0.815 | 0.323 | 0.798 | 0.269 | 0.466 | 1 | 0.117 | 0.12 | 0.224 | 1 | 0.973 | 0.77 | 0.816
6 | CS(=O)(=O)CCNCc1ccc(-c2ccc3ncnc(Nc4ccc(OCc5cccc(F)c5)c(Cl)c4)c3c2)o1 [Lapatinib] + Cn1cnc2c(F)c(Nc3ccc(Br)cc3Cl)c(C(=O)NOCCO)cc21 [Selumetinib] (first compound max 10 µM, 7x7, partner max 10 µM) | 0.441 | 0.341 | 0.501 | 0.696 | 0.749 | 0.476 | 0.477 | 0.642 | 0.257 | 0.171 | 0.331 | 0.715 | 0.66 | 0.469 | 0.535
7 | O=C(c1cc(Cc2n[nH]c(=O)c3ccccc23)ccc1F)N1CCN(C(=O)C2CC2)CC1 [Olaparib] + CC1(C)CCC(CN2CCN(c3ccc(C(=O)NS(=O)(=O)c4ccc(NCC5CCOCC5)c([N+](=O)[O-])c4)c(Oc4cnc5[nH]ccc5c4)c3)CC2)=C(c2ccc(Cl)cc2)C1 [Venetoclax] (first compound max 10 µM, 7x7, partner max 1 µM) | 0.106 | 0.104 | 0.7 | 0.182 | 0.0175 | 0.14 | 0.186 | 1 | 0.0786 | 0.126 | 0.0952 | 0.961 | 0.432 | 0.257 | 0.292

Source: the supplement of paper PMC11061612
